Test results: paper PMC3013619 (Cell host & microbe, 2009)

Biological target: T1, TgAPT (apicoplast phosphate translocator), TgAPT-N (Toxoplasma gondii, UniProt A7U554)
T1 sequence (A7U554 1-352): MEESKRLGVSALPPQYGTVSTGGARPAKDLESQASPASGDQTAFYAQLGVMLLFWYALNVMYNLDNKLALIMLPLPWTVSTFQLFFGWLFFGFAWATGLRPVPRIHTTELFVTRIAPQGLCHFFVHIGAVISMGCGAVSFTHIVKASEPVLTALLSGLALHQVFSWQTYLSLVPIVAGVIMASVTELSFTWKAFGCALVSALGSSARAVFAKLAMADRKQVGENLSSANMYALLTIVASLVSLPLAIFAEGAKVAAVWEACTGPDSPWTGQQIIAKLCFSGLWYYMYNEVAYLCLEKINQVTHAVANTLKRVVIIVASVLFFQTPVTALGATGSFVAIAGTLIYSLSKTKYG
Test: […]-Pi uptake into proteoliposomes, competitive inhibition
Assay type: biochemical
Conditions: competitive with Pi; apparent; pH 7.6; reconstituted solubilized yeast membranes

Row | Compound | Kinetic constant ^d / TgAPT
1 | O=C(O)[C@H](O)COP(=O)(O)O [3-PGA] | 1.33 ± 0.49 mM
2 | C=C(OP(=O)(O)O)C(=O)O [PEP] | 1.65 ± 0.52 mM
3 | triose phosphate | 1.63 ± 0.26 mM
